In US6852740B2, “Pyrazole derivatives as p38 kinase inhibitors” (G. D. Searle & Co., priority 1997, dated 2005) one finds IC50 and melting point data, which are given here for 3 compounds.

Series [1] deals with T1, human p38 kinase alpha (Homo sapiens, UniProt Q16539).
T1 construct: The coding region of the human p38a cDNA was obtained by PCR-amplification from RNA; made in house; host or cells: E. coli DH10B
The experiment in a line: p38α in vitro kinase assay, EGFRP procedure. It counts as biochemical. As for the experimental part: A second assay format was also employed that is based on p38 kinase alpha induced phosphorylation of EGFRP (epidermal growth factor receptor peptide, a 21 mer) in the presence of ^33P-ATP. Compounds were tested in 10 fold serial dilutions over the range of 100 μM to 0.001 μM in 1% DMSO. Each concentration of inhibitor was tested in triplicate. Compounds were evaluated in 50 μl reaction volumes in the presence of 25 mM Hepes pH 7.5, 10 mM magnesium acetate, 4% glycerol, 0.4% bovine serum albumin, 0.4 mM DTT, 50 μM unlabeled ATP, 25 μg EGFRP (200 μM), and 0.05 uCi gamma ^33P-ATP. Reactions were initiated by addition of 0.09 μg of activated, purified human GST-p38 kinase alpha. Activation was carried out using GST-MKK6 (5:1,p38:MKK6) for one hour at 30° C. in the presence of 50 μM ATP. Following incubation for 60 minutes at room temperature, the reaction was stopped by addition of 150 μl of AG 1×8 resin in 900 mM sodium formate buffer, pH 3.0 (1 volume resin to 2 volumes buffer). The mixture was mixed three times with pipetting and the resin was allowed to settle. A total of 50 μl of clarified solution head volume was transferred from the reaction wells to Microlite-2 plates. 150 μl of Microscint 40 was then added to each well of the Microlite plate, and the plate was sealed, mixed, and counted.

Series [2] deals with T1, human p38 kinase alpha. In words: p38α in vitro kinase assay, PHAS-I procedure. In kind it is biochemical. As for the experimental part: The ability of compounds to inhibit human p38 kinase alpha was evaluated using two in vitro assay methods. In the first method, activated human p38 kinase alpha phosphorylates a biotinylated substrate, PHAS-I (phosphorylated heat and acid stable protein-insulin inducible), in the presence of gamma ^32P-ATP (^32P-ATP). PHAS-I was biotinylated prior to the assay and provides a means of capturing the substrate which is phosphorylated during the assay. p38 Kinase was activated by MKK6. Compounds were tested in 10 fold serial dilutions over the range of 100 μM to 0.001 μM using 1% DMSO. Each concentration of inhibitor was tested in triplicate.
All reactions were carried out in 96 well polypropylene plates. Each reaction well contained 25 mM HEPES pH 7.5, 10 mM magnesium acetate and 50 μM unlabeled ATP. Activation of p38 was required to achieve sufficient signal in the assay. Biotinylated PHAS-I was used at 1-2 μg per 50 μl reaction volume, with a final concentration of 1.5 μM. Activated human p38 kinase alpha was used at 1 μg per 50 μl reaction volume representing a final concentration of 0.3 μM. […]
Following incubation, 20 μl of reaction mixture was transferred to a high capacity streptavidin coated filter plate (SAM-streptavidin-matrix, Promega) prewetted with phosphate buffered saline. […] The plates were sealed and counted.

Series [3] has as its system TNF-α release by U937 cells. In words: LPS stimulation of TNF production by U937 cells. The following applies: Homo sapiens, U-937; LPS-stimulated differentiated U937 cells, TNF-α by ELISA after 4 hour incubation; read-out: TNF Cell IC50. It counts as cell-based. As for the experimental part: U937 cells (ATCC) were propagated in RPMI 1640 containing 10% fetal bovine serum, 100 IU/ml penicillin, 100 μg/ml streptomycin, and 2 mM glutamine (Gibco). Fifty million cells in 100 ml media were induced to terminal monocytic differentiation by 24 hour incubation with 20 ng/ml phorbol 12-myristate 13-acetate (Sigma). The cells were washed by centrifugation (200×g for 5 min) and resuspended in 100 ml fresh medium. After 24-48 hours, the cells were harvested, centrifuged, and resuspended in culture medium at 2 million cells/ml.
U937 cells (0.1 ml, 2 million/ml) were incubated with 0.1 ml compound (0.004-50 μM, final concentration) for 1 hour in 96 well microtiter plates. Compounds were prepared as 10 mM stock solutions in DMSO and diluted in culture medium to yield a final DMSO concentration of 0.1% in the cell assay. LPS (E coli, 100 ng/ml final concentration) was then added at a volume of 0.02 ml. After 4 hour incubation at 37° C., the amount of TNF-α released in the culture medium was quantitated by ELISA. Inhibitory potency is expressed as IC50 (μM).

T1 sequence (Q16539 whole entry): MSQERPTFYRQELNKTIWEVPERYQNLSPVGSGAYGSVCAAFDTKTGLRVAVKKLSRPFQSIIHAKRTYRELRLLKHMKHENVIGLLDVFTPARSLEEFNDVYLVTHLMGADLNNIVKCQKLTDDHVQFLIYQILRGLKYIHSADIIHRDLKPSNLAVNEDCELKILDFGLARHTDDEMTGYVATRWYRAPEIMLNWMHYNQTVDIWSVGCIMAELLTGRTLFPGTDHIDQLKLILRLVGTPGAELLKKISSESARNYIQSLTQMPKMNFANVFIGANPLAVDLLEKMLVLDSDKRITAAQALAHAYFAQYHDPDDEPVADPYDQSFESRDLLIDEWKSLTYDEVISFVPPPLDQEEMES

The IC50 is the point on the concentration scale where inhibition reaches its midpoint. For `Cc1n[nH]c(/C=C/c2ccccc2)c1-c1ccncc1` [Example 1, 4-[3-Methyl-5-(2-phenylethenyl)-1H-pyrazol-4-yl]pyridine], the results for the IC50 (against human p38 kinase alpha [1]; against human p38 kinase alpha [2]; in series [3]) were 660 nM, 8700 nM and 600 nM, respectively.

Turning to `Cc1n[nH]c(CCc2ccccc2)c1-c1ccncc1` [Example 2, 4-[3-Methyl-5-(2-phenylethyl)-1H-pyrazol-4-yl]pyridine], the IC50 against human p38 kinase alpha [1] is 2800 nM; on human p38 kinase alpha [2], 1000 nM; in series [3], 2300 nM.

A word on the melting point: it is the temperature of the solid-liquid transition. Take `c1ccc(CCc2n[nH]cc2-c2ccncc2)cc1` [Example 3, 4-[5-(2-phenylethyl)-1H-pyrazol-4-yl]pyridine]: the melting point fell in the range of 125 to 131 °C.
